Assay results published in US20070232698A1, “Slimming Skin External Preparation and Cosmetic Containing the Same” (priority 2004, published 2007).
Structures can show the parent of a compound that is named as a salt. Where two headings read alike, the source gives them in different places.

Key:
Mouse 3T3-F442A cells = assay: Triglyceride accumulation in adipocytes with base acylcarnitine plus test substance (oil red staining); format: cell-based; conditions: 4 days, control = base alone; for accumulated triglyceride amount relative to the control (100%), Base Hexadecanoyl-L-carnitine hydrochloride: base hexadecanoyl-L-carnitine hydrochloride plus 50 μM test substance (ginkgo biloba extract 30 μg/ml; garcinia extract as hydroxycitric acid); for accumulated triglyceride amount relative to the control (100%), Base Octadecanoyl-L-carnitine hydrochloride: base octadecanoyl-L-carnitine hydrochloride plus 50 μM test substance (ginkgo biloba extract 30 μg/ml; garcinia extract as hydroxycitric acid)
Procedure: The incubation was continued for another 4 days. The control was incubated using a culture medium that contained the base alone (no test substances). After the 4-days incubation, the cells were washed three times with Dulbecco's PBS (−). The triglyceride amount accumulated in the cells was quantitatively determined by oil red staining. […] Mouse 3T3-F442A cells were incubated as described in Example 10, and differentiation into adipocytes was observed. […] The incubation was continued for another 4 days. The control was incubated using a culture medium that contained the base alone (no test substances). After the 4-days incubation, the cells were washed three times with Dulbecco's PBS (−). The triglyceride amount accumulated in the cells was quantitatively determined by oil red staining.

[1] = test system: human skin tissue three dimensional model (TESTSKIN LSD-d)
Procedure: (§1) The test substances were each dissolved in Dulbecco's PBS (−) to give a 1% by mass solution of the test substance. The test substance solutions were placed, each 50 μL, to a tissue surface of human skin tissue three dimensional model (TESTSKIN™ LSD-d, available from TOYOBO CO., LTD.), and were incubated at 37° C. in a 5% CO2 atmosphere for 2 hours. Thereafter the test substance solutions were aspirated out, and the skin models were further incubated at 37° C. in a 5% CO2 atmosphere for 2, 6 or 12 hours. The skin models were sampled after the lapse of each of the incubation times. The skin models sampled at the incubation times were washed with Dulbecco's PBS (−), and the tissue surfaces on which the test substances had been placed were punched out with a punch 6 mm in diameter. The skin models were then homogenated in a HEPES buffer solution (pH: 7.2), and were quantitatively analyzed using a high performance liquid chromatography to determine the carnitine content in the skin model.
(§2) From the analysis results, the carnitine contents in the skin models (unit: nmol/mg skin protein) were obtained for the test substances at each of the incubation times.

[2] = test system: skin together with subcutaneous fat tissues; assay: Subcutaneous fat breakdown test (rat abdominal skin with subcutaneous fat in Franz diffusion cell); conditions: lower cell PBS (−), 37° C., average of three measurements, control (none) 20
Procedure: A male Wister rat, 10 weeks old, was shaved on the abdomen, and the skin was removed together with subcutaneous fat tissues and was placed in a Franz diffusion cell. An upper cell on the skin surface was filled with a buffer solution containing the Example 1 test substance, and a lower cell was filled with Dulbecco's PBS (−). The diffusion cell was held at 37° C. and was allowed to stand for 8 or 16 hours. After the lapse of each of the standing times, PBS (−) was withdrawn from the lower cell. The content of free glycerol resulting from the fat breakdown was measured with use of Glycerol Test E Wako. The results are averages of three measurements.
The free glycerol contents were measured in the same manner as in Example 3, except that the two carnitine and carnitine derivative 1) and 6) used in Example 4 were tested. The results are averages of three measurements.
The free glycerol contents were measured in the same manner as in Example 3, except that the three carnitine and carnitine derivatives 1), 7) and 8) used in Example 7 were tested. The results are averages of three measurements.

Mouse 3T3 adipocytes = assay: Measurement of fat metabolic activity for mouse 3T3 adipocytes (free glycerol in culture medium); format: cell-based; conditions: 250 μM test substance, medium recovered after 24 hours; control (none) = 100
Procedure: The five carnitine and carnitine derivatives 1) to 5) used in Example 1 were tested. The fat metabolic activity was measured and compared by quantitative determination of glycerol in the culture medium based on the fact that metabolism of the fat accumulated in adipocytes releases glycerol and free fatty acid to the culture medium.
Mouse 3T3 cells as the preadipocytes were disseminated on a 10 cm-diameter dish such that 1×10^4 cells were on the dish. […] Thereafter, the culture medium was replaced with a 10% FCS-containing DMEM culture medium that contained […] of dexamethasone, 0.5 mM of isobutylmethylxanthine and 10 μg/ml of insulin, and incubation was continued for another 2 days. Subsequently, the culture medium was replaced again with a 10% FCS-containing ordinary DMEM culture medium, and incubation was performed for another week, resulting in differentiation of the preadipocytes into adipocytes. Next, the culture medium was replaced with an ordinary culture medium that contained 250 μM of the carnitine or carnitine derivative of the five substances 1) to 5) used in Example 1, and the culture medium was recovered after 24 hours. The cells were washed with Dulbecco's PBS (−) and were recovered. Cells incubated in the absence of the test substances were used as the control. The glycerol content in the culture medium was quantitatively determined using Glycerol Test E Wako (Wako Pure Chemical Industries, Ltd.).
The fat metabolic activity for mouse 3T3 adipocytes was determined based on the free glycerol content in the same manner as in Example 2, except that the two carnitine and carnitine derivative 1) and 6) used in Example 4 were tested.
The fat metabolic activity for mouse 3T3 adipocytes was determined based on the free glycerol content in the same manner as in Example 2, except that the three carnitine and carnitine derivatives 1), 7) and 8) used in Example 7 were tested.

[3] = test system: human skin tissue three dimensional model (TESTSKIN LSD-d); assay: Comparison of percutaneous absorption properties: carnitine content in skin model; conditions: 1% by mass solution, 50 μL on tissue surface for 2 hours; for carnitine content in the skin model, After 2-hour incubation: then 2-hour incubation at 37° C.; for carnitine content in the skin model, After 6-hour incubation: then 6-hour incubation at 37° C.; for carnitine content in the skin model, After 12-hour incubation: then 12-hour incubation at 37° C.
Procedure: as §1, §2

## CCCCCCCCCCCCCCCC(=O)O [Palmitic acid]
Mouse 3T3-F442A cells
  accumulated triglyceride amount relative to the control (100%), Base Hexadecanoyl-L-carnitine hydrochloride: 102%
  accumulated triglyceride amount relative to the control (100%), Base Octadecanoyl-L-carnitine hydrochloride: 100%

## O=C1O[C@H]([C@@H](O)CO)C(O)=C1O[C@H]1O[C@H](CO)[C@@H](O)[C@H](O)[C@H]1O [Ascorbic acid-2-glucoside]
Mouse 3T3-F442A cells
  accumulated triglyceride amount relative to the control (100%), Base Hexadecanoyl-L-carnitine hydrochloride: 99%
  accumulated triglyceride amount relative to the control (100%), Base Octadecanoyl-L-carnitine hydrochloride: 102%

## CC(C)Cn1c(=O)n(C)c(=O)c2[nH]cnc21 [3-Isobutyl-1-methylxanthine]
Mouse 3T3-F442A cells
  accumulated triglyceride amount relative to the control (100%), Base Hexadecanoyl-L-carnitine hydrochloride: 50%
  accumulated triglyceride amount relative to the control (100%), Base Octadecanoyl-L-carnitine hydrochloride: 57%

## CCCCCCCCCCCCCCCC(=O)O[C@H](CC(=O)O)C[N+](C)(C)C.[Cl-] [Test substance 4), Hexadecanoyl-L-carnitine hydrochloride]
[1]
  carnitine content in the skin model, After 2-hour incubation: 6 nmol/mg skin protein
  carnitine content in the skin model, After 6-hour incubation: 10 nmol/mg skin protein
  carnitine content in the skin model, After 12-hour incubation: 23 nmol/mg skin protein
[2]
  Free glycerol, After 8 hours: 125 µmol/mL
  Free glycerol, After 16 hours: 170 µmol/mL
Mouse 3T3 adipocytes
  Free glycerol content (% relative to the control): 180 % relative to the control

## O=C1O[C@H]([C@@H](O)CO)C(O)=C1OP(=O)([O-])[O-].[Mg+2] [Ascorbic acid-2-phosphate magnesium salt]
Mouse 3T3-F442A cells
  accumulated triglyceride amount relative to the control (100%), Base Hexadecanoyl-L-carnitine hydrochloride: 98%
  accumulated triglyceride amount relative to the control (100%), Base Octadecanoyl-L-carnitine hydrochloride: 97%

## Cc1ccc(N(CC2=NCCN2)c2cccc(O)c2)cc1 [Phentolamine hydrochloride]
Mouse 3T3-F442A cells
  accumulated triglyceride amount relative to the control (100%), Base Hexadecanoyl-L-carnitine hydrochloride: 68%
  accumulated triglyceride amount relative to the control (100%), Base Octadecanoyl-L-carnitine hydrochloride: 65%

## CC(C)NCC(O)c1ccc(O)c(O)c1 (centres unmarked) [Isoproterenol hydrochloride]
Mouse 3T3-F442A cells
  accumulated triglyceride amount relative to the control (100%), Base Hexadecanoyl-L-carnitine hydrochloride: 60%
  accumulated triglyceride amount relative to the control (100%), Base Octadecanoyl-L-carnitine hydrochloride: 64%

## CCCCCCCCCCCCCCCCCC(=O)O [Stearic acid]
Mouse 3T3-F442A cells
  accumulated triglyceride amount relative to the control (100%), Base Hexadecanoyl-L-carnitine hydrochloride: 101%
  accumulated triglyceride amount relative to the control (100%), Base Octadecanoyl-L-carnitine hydrochloride: 99%

## CCCCCCCCCCCCCCCCOC(=O)C[C@@H](O)C[N+](C)(C)C.[Cl-] [Test substance 6), L-Carnitine hexadecyl ester hydrochloride]
[3]
  carnitine content in the skin model, After 2-hour incubation: 5 nmol/mg skin protein
  carnitine content in the skin model, After 6-hour incubation: 11 nmol/mg skin protein
  carnitine content in the skin model, After 12-hour incubation: 26 nmol/mg skin protein
[2]
  Free glycerol, After 8 hours: 110 µmol/mL
  Free glycerol, After 16 hours: 116 µmol/mL
Mouse 3T3 adipocytes
  Free glycerol content (% relative to the control): 165 % relative to the control

## CCCCCCCCCCCCCCCCOC(=O)C[C@H](C[N+](C)(C)C)OC(=O)CCCCCCCCCCCCCCC.[Cl-] [Test substance 8), Hexadecanoyl-L-carnitine hexadecyl ester hydrochloride]
[3]
  carnitine content in the skin model, After 2-hour incubation: 2 nmol/mg skin protein
  carnitine content in the skin model, After 6-hour incubation: 8 nmol/mg skin protein
  carnitine content in the skin model, After 12-hour incubation: 21 nmol/mg skin protein
[2]
  Free glycerol, After 8 hours: 75 µmol/mL
  Free glycerol, After 16 hours: 150 µmol/mL
Mouse 3T3 adipocytes
  Free glycerol content (% relative to the control): 148 % relative to the control

## C[N+](C)(C)C[C@H](O)CC(=O)[O-] [Test substance 1), L-Carnitine, reference compound]
[3]
  carnitine content in the skin model, After 2-hour incubation: 12 nmol/mg skin protein
  carnitine content in the skin model, After 6-hour incubation: 12 nmol/mg skin protein
  carnitine content in the skin model, After 12-hour incubation: 11 nmol/mg skin protein
[2]
  Free glycerol, After 8 hours: 120 µmol/mL
  Free glycerol, After 16 hours: 125 µmol/mL
Mouse 3T3 adipocytes
  Free glycerol content (% relative to the control): 120 % relative to the control

## CCCCCCCCCCCCCCCC(=O)OC[C@H](O)[C@H]1OC(=O)C(OP(=O)([O-])[O-])=C1[O-].[Na+].[Na+].[Na+] [Ascorbic acid-2-phosphoric acid-6-palmitate sodium salt]
Mouse 3T3-F442A cells
  accumulated triglyceride amount relative to the control (100%), Base Hexadecanoyl-L-carnitine hydrochloride: 96%
  accumulated triglyceride amount relative to the control (100%), Base Octadecanoyl-L-carnitine hydrochloride: 96%

## CCCCCCCCCCCCCC(=O)O [Myristic acid]
Mouse 3T3-F442A cells
  accumulated triglyceride amount relative to the control (100%), Base Hexadecanoyl-L-carnitine hydrochloride: 99%
  accumulated triglyceride amount relative to the control (100%), Base Octadecanoyl-L-carnitine hydrochloride: 98%

## CCCCCC(=O)O[C@H](CC(=O)O)C[N+](C)(C)C.[Cl-] [Test substance 2), Hexanoyl-L-carnitine hydrochloride]
[1]
  carnitine content in the skin model, After 2-hour incubation: 7 nmol/mg skin protein
  carnitine content in the skin model, After 6-hour incubation: 14 nmol/mg skin protein
  carnitine content in the skin model, After 12-hour incubation: 21 nmol/mg skin protein
[2]
  Free glycerol, After 8 hours: 116 µmol/mL
  Free glycerol, After 16 hours: 138 µmol/mL
Mouse 3T3 adipocytes
  Free glycerol content (% relative to the control): 155 % relative to the control

## Calcium hydroxycitrate
Mouse 3T3-F442A cells
  accumulated triglyceride amount relative to the control (100%), Base Hexadecanoyl-L-carnitine hydrochloride: 89%
  accumulated triglyceride amount relative to the control (100%), Base Octadecanoyl-L-carnitine hydrochloride: 88%

## CCCCCCCCCCCCCCCC(=O)O[C@H](CC(=O)OC)C[N+](C)(C)C.[Cl-] [Test substance 7), Hexadecanoyl-L-carnitine methyl ester hydrochloride]
[3]
  carnitine content in the skin model, After 2-hour incubation: 2 nmol/mg skin protein
  carnitine content in the skin model, After 6-hour incubation: 9 nmol/mg skin protein
  carnitine content in the skin model, After 12-hour incubation: 19 nmol/mg skin protein
[2]
  Free glycerol, After 8 hours: 68 µmol/mL
  Free glycerol, After 16 hours: 145 µmol/mL
Mouse 3T3 adipocytes
  Free glycerol content (% relative to the control): 143 % relative to the control

## OCC(O)CO [Glycerol]
Mouse 3T3-F442A cells
  accumulated triglyceride amount relative to the control (100%), Base Hexadecanoyl-L-carnitine hydrochloride: 118%
  accumulated triglyceride amount relative to the control (100%), Base Octadecanoyl-L-carnitine hydrochloride: 113%

## Cn1c(=O)c2[nH]cnc2n(C)c1=O [Theophylline]
Mouse 3T3-F442A cells
  accumulated triglyceride amount relative to the control (100%), Base Hexadecanoyl-L-carnitine hydrochloride: 62%
  accumulated triglyceride amount relative to the control (100%), Base Octadecanoyl-L-carnitine hydrochloride: 58%

## C[N+](C)(C)C[C@H](O)CC(=O)[O-].Cl [L-carnitine hydrochloride]
Mouse 3T3-F442A cells
  accumulated triglyceride amount relative to the control (100%), Base Hexadecanoyl-L-carnitine hydrochloride: 99%
  accumulated triglyceride amount relative to the control (100%), Base Octadecanoyl-L-carnitine hydrochloride: 102%

## CCCCCCCCCCCCCCCC(=O)OC(CC(=O)O)(C(=O)O)C(O)C(=O)O (centres unmarked) [Hydroxycitric acid-2-palmitate]
Mouse 3T3-F442A cells
  accumulated triglyceride amount relative to the control (100%), Base Hexadecanoyl-L-carnitine hydrochloride: 70%
  accumulated triglyceride amount relative to the control (100%), Base Octadecanoyl-L-carnitine hydrochloride: 72%

## Cc1c(C)c2c(c(C)c1OP(=O)([O-])[O-])CCC(C)(CCCC(C)CCCC(C)CCCC(C)C)O2.[Na+].[Na+] (racemic) [dl-α-Tocopherol phosphate sodium salt]
Mouse 3T3-F442A cells
  accumulated triglyceride amount relative to the control (100%), Base Hexadecanoyl-L-carnitine hydrochloride: 100%
  accumulated triglyceride amount relative to the control (100%), Base Octadecanoyl-L-carnitine hydrochloride: 102%

## Cc1c(C)c2c(c(C)c1OC(=O)CN(C)C)CCC(C)(CCCC(C)CCCC(C)CCCC(C)C)O2.Cl (racemic) [dl-α-Tocopherol-N,N-dimethylglycine ester hydrochloride]
Mouse 3T3-F442A cells
  accumulated triglyceride amount relative to the control (100%), Base Hexadecanoyl-L-carnitine hydrochloride: 98%
  accumulated triglyceride amount relative to the control (100%), Base Octadecanoyl-L-carnitine hydrochloride: 99%
